Results on three molecules are retold here after PMC1069517 (Nucleic Acids Research, 2005).

One data set addresses T1, a/eIF2 α–γ dimer (Saccharolobus solfataricus, UniProt Q980A5).
T1 sequence (Q980A5 1-415): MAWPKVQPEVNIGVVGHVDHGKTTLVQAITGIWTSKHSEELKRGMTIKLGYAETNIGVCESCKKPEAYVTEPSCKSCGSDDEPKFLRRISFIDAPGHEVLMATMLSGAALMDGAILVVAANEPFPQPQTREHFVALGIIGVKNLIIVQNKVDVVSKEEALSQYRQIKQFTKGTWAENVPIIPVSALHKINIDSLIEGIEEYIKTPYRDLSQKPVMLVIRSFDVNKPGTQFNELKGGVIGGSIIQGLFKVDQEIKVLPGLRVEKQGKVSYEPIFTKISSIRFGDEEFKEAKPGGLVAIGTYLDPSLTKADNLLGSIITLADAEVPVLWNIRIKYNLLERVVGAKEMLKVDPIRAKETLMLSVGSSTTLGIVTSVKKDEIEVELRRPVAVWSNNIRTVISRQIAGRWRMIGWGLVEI
T1 sequence (Q97Z79 1-266 partner): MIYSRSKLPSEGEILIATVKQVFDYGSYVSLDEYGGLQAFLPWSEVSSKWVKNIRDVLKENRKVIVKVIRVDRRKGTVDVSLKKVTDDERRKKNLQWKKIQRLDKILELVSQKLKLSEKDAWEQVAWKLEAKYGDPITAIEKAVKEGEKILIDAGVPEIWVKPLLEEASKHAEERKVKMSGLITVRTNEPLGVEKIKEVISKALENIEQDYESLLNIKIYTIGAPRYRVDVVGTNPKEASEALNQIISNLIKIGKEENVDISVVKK
Nature of the data set: nitrocellulose filter binding. The note with it: 65 °C, 30 mM KCl, 50 mM HEPES pH 7.5, 0.5 mM MgCl2, 1 mM DTT; labelled compound.

The target of another data set is T2, a/eIF2 β–γ dimer (Saccharolobus solfataricus, UniProt Q980A5).
T2 sequence (Q980A5 1-415): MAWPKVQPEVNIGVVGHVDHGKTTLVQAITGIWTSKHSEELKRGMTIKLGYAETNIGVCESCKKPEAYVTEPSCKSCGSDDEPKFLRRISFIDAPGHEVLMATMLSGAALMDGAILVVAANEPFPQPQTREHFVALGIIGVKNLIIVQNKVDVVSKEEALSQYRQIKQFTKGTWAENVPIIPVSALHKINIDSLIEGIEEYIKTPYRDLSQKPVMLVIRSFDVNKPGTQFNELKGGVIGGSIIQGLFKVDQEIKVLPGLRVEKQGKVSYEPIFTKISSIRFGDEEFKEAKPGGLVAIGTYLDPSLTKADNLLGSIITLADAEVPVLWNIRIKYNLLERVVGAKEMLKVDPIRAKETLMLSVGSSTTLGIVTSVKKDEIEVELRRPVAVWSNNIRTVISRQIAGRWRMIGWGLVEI
T2 sequence (Q97W59 1-139 partner): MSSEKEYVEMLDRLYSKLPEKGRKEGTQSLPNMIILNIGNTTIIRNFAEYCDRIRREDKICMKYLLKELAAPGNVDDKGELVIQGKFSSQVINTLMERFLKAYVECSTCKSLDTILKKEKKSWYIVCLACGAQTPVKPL
The experiment in a line: nitrocellulose filter binding. The note with it: 65 °C, 30 mM KCl, 50 mM HEPES pH 7.5, 0.5 mM MgCl2, 1 mM DTT; labelled compound.

In data set [1] the target is T3, a/eIF2 alpha subunit;a/eIF2 beta subunit;a/eIF2 gamma subunit (Saccharolobus (Sulfolobus) …, UniProt Q97Z79;Q97W59;Q980A5 1-266;1-139;1-415, ||).
T3 sequence 1: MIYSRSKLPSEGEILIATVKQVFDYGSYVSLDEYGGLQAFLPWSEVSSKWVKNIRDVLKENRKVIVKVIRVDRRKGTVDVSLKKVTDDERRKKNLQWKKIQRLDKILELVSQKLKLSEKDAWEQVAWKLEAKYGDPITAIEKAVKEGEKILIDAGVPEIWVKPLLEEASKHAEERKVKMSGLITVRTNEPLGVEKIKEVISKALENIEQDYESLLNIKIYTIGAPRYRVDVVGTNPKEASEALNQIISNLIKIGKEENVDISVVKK
T3 sequence 2: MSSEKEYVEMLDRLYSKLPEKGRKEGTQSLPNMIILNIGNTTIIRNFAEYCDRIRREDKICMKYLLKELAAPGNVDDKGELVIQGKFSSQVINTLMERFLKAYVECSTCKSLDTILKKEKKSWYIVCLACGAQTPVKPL
T3 sequence 3: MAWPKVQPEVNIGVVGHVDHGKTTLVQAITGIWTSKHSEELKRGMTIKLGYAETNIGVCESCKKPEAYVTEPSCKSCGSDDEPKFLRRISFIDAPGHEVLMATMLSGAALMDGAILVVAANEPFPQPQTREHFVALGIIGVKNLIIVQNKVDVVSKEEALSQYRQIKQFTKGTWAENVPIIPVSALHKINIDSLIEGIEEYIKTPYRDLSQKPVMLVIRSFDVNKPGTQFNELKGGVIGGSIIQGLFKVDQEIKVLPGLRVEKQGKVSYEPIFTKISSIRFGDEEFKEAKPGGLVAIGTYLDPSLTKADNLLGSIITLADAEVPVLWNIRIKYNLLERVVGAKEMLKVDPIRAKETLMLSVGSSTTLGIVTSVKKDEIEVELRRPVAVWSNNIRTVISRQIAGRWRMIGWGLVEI
Nature of the data set: filter binding.

Data set [2] deals with T4, a/eIF2 alpha subunit;a/eIF2 gamma subunit (Saccharolobus (Sulfolobus) …, UniProt Q97Z79;Q980A5 1-266;1-415, |).
T4 sequence 1: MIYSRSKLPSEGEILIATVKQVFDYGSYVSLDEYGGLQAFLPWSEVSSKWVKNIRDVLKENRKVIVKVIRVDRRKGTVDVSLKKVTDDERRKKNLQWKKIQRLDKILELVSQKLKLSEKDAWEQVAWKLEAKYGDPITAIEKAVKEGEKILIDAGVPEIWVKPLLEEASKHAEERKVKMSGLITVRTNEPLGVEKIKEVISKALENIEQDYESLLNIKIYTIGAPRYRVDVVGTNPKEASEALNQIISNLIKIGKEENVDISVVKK
T4 sequence 2: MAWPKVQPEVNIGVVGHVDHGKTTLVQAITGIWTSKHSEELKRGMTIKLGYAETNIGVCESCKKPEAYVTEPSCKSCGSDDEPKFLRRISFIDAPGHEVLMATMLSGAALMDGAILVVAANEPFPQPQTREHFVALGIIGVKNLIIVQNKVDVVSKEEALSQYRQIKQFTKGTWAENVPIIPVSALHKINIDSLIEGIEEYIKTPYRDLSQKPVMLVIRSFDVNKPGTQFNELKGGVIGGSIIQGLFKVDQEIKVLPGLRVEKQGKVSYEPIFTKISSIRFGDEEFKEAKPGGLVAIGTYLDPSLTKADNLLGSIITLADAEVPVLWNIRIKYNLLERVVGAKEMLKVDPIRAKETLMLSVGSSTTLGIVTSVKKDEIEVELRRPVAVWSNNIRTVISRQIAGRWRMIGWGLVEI
Nature of the data set: filter binding.

On to `Nc1nc2c(ncn2[C@@H]2O[C@H](COP(=O)(O)OP(=O)(O)O)[C@@H](O)[C@H]2O)c(=O)[nH]1` [GDP], for which the nitrocellulose filter binding result at a/eIF2 α–γ dimer was “displayed GDP and GTP binding curves essentially overlapping with those obtained with the γ-subunit alone”; on a/eIF2 β–γ dimer it was “displayed GDP and GTP binding curves essentially overlapping with those obtained with the γ-subunit alone”.
As for `Nc1nc2c(ncn2[C@@H]2O[C@H](COP(=O)(O)OP(=O)(O)OP(=O)(O)O)[C@@H](O)[C@H]2O)c(=O)[nH]1` [GTP], the nitrocellulose filter binding entry on a/eIF2 α–γ dimer was “displayed GDP and GTP binding curves essentially overlapping with those obtained with the γ-subunit alone”; on a/eIF2 β–γ dimer, “displayed GDP and GTP binding curves essentially overlapping with those obtained with the γ-subunit alone”.

B1: [35S]Met-tRNAi (structured_RNA)
RNA: AGCGGGGUGGGCUAGCCUGGUAAGGCCGCGGGGCUCAUAACCCCGAGGUCCCUGGUUCAAAUCCAGGCCCCGCUACCA
modifications: 3' aminoacylated with methionine; no base modifications (in vitro transcript)
On to B1, for which the binding result in data set [1] and in data set [2] was “binds” in each case.
